In the supplement of paper PMC11061612:

How the values were obtained:
Assay in all cases: Bliss excess, mean over the matrix (fraction); higher = more synergy
[1] = test system: TCCSUP (Bladder Carcinoma)
Procedure, shortened: (§1)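 Bliss excess equals the observed combination effect minus the expected value EA + EB − EA·EB, where EA and EB are the effects of each agent alone. Combination Emax is the second-highest inhibition within the matrix. Inhibition was scaled from CellTiter-Glo 2.0 luminescence, with 0 set by vehicle wells and 1 by blank wells, after 72 hours of two-drug dosing of cells plated in 1536-well plates.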

[2] = test system: LU-135 (Small Cell Lung Carcinoma)
Procedure, shortened: as §1

[3] = test system: NCI-H2085 (Non-Small Cell Lung Carcinoma)
Procedure, shortened: as §1

NOS-1 (Osteosarcoma) = test system: NOS-1 (Osteosarcoma)
Procedure, shortened: as §1

[4] = test system: SK-ES-1 (Ewing's Sarcoma)
Procedure, shortened: as §1

[5] = test system: LNCaP-Clone-FGC (Prostate Carcinoma)
Procedure, shortened: as §1

[6] = test system: HO-1-N-1 (Oral Cavity Carcinoma)
Procedure, shortened: as §1

[7] = test system: RO82-W-1 (Thyroid Gland Carcinoma)
Procedure, shortened: as §1

[8] = test system: KP-1N (Pancreatic Carcinoma)
Procedure, shortened: as §1

[9] = test system: TE-15 (Esophageal Squamous Cell Carcinoma)
Procedure, shortened: as §1

AGS (Gastric Carcinoma) = test system: AGS (Gastric Carcinoma)
Procedure, shortened: as §1

[10] = test system: CAL-148 (Breast Carcinoma)
Procedure, shortened: as §1

Compound	Bliss excess [1]	Bliss excess [2]	Bliss excess [3]	Bliss excess (NOS-1 (Osteosarcoma))	Bliss excess [4]	Bliss excess [5]	Bliss excess [6]	Bliss excess [7]	Bliss excess [8]	Bliss excess [9]	Bliss excess (AGS (Gastric Carcinoma))	Bliss excess [10]
CN(C)CCCOc1ccc(-c2ccc3ncc4c(c3c2)n(C2CCOCC2)c(=O)n4C)cn1 [AZD0156] + C=CCn1c(=O)c2cnc(Nc3ccc(N4CCN(C)CC4)cc3)nc2n1-c1cccc(C(C)(C)O)n1 [AZD1775] (first compound max 1 µM, partner max 1 µM)	-0.0651	0.0024	-0.0406	-0.0113	0.0045	-0.045	-0.012	-0.119	-0.0207	-0.0705	-0.0517	-0.0318
CN(C)CCCOc1ccc(-c2ccc3ncc4c(c3c2)n(C2CCOCC2)c(=O)n4C)cn1 [AZD0156] + CCN(CCO)CCCOc1ccc2c(Nc3cc(CC(=O)Nc4cccc(F)c4)[nH]n3)ncnc2c1 [AZD2811] (first compound max 1 µM, 7x7, partner max 1 µM)	-0.0589	-0.0008	-0.0194	-0.0114	-0.0011	-0.0257	0.0056	-0.0556	0.0312	-0.0382	-0.0047	-0.0262
CN(C)CCCOc1ccc(-c2ccc3ncc4c(c3c2)n(C2CCOCC2)c(=O)n4C)cn1 [AZD0156] + C[C@@H]1COCCN1C2=NC(=NC(=C2)C3(CC3)[S@](=N)(=O)C)C4=C5C=CNC5=NC=C4 [AZD6738] (first compound max 1 µM, 7x7, partner max 10 µM)	-0.0255	-0.032	0.0274	-0.0241	0.0267	-0.056	-0.0101	-0.0649	0.0261	-0.0283	0.0232	-0.0441
C=CCn1c(=O)c2cnc(Nc3ccc(N4CCN(C)CC4)cc3)nc2n1-c1cccc(C(C)(C)O)n1 [AZD1775] + C[C@@H]1COCCN1C2=NC(=NC(=C2)C3(CC3)[S@](=N)(=O)C)C4=C5C=CNC5=NC=C4 [AZD6738] (first compound max 1 µM, partner max 10 µM)	0.0305	-0.0044	0.0147	0.0735	0.0071	-0.0387	0.0456	-0.0916	0.0055	-0.0076	0.113	-0.034
COc1nnc2ccc(N3CCC(c4ccc(OCCN5CCN(C)C(=O)[C@H]5C)cc4)CC3)nn12 [AZD5153] + CN(CC[C@H](CSC1=CC=CC=C1)NC2=C(C=C(C=C2)S(=O)(=O)NC(=O)C3=CC=C(C=C3)N4CCC(CC4)[C@H](C5=CC=CC=C5C6=CC=C(C=C6)Cl)O)S(=O)(=O)C(F)(F)F)CCO [AZD4320] (first compound max 1 µM, 7x7, partner max 1 µM)	0.0033	0.0221		0.044	0.0211	0.0557			-0.0004		-0.03	
Cc1c2c(nn1C)CSCc1cc(n(C)n1)CSc1cc(c3ccccc3c1)OCCCc1c(C(=O)O)n(C)c3c-2c(Cl)ccc13 [AZD5991] + C=CCn1c(=O)c2cnc(Nc3ccc(N4CCN(C)CC4)cc3)nc2n1-c1cccc(C(C)(C)O)n1 [AZD1775] (first compound max 1 µM, partner max 1 µM)	-0.0021	-0.0654	-0.0165		-0.0008	0.0118	-0.0348	-0.0197	-0.0696	-0.0135	-0.0145	0.0567
CS(=O)(=O)CCNCc1ccc(-c2ccc3ncnc(Nc4ccc(OCc5cccc(F)c5)c(Cl)c4)c3c2)o1 [Lapatinib] + NC1(c2ccc(-c3nc4ccn5c(=O)[nH]nc5c4cc3-c3ccccc3)cc2)CCC1 [MK-2206] (first compound max 10 µM, 7x7, partner max 10 µM)			0.0463				0.0213	-0.0165		-0.0202		0.0253
CCc1c2c(nc3ccc(O)cc13)-c1cc3c(c(=O)n1C2)COC(=O)[C@]3(O)CC [SN-38] + O=C(c1cc(Cc2n[nH]c(=O)c3ccccc23)ccc1F)N1CCN(C(=O)C2CC2)CC1 [Olaparib] (first compound max 0.3 µM, 7x7, partner max 10 µM)	0.0883	0.0545	-0.0181	-0.0251	0.0611		0.06	-0.0448	0.0647	0.0207	0.0897	0.0981
C[C@@H](c1ccc2nccn2c1)n1nnc2ncc(-c3cnn(C)c3)nc21 [Savolitinib] + CN(CC[C@H](CSC1=CC=CC=C1)NC2=C(C=C(C=C2)S(=O)(=O)NC(=O)C3=CC=C(C=C3)N4CCC(CC4)[C@H](C5=CC=CC=C5C6=CC=C(C=C6)Cl)O)S(=O)(=O)C(F)(F)F)CCO [AZD4320] (first compound max 1 µM, 7x7, partner max 1 µM)	-0.0469	0.0057		-0.0137	-0.0692	-0.0205			-0.0755		-0.0353	
